From PubChem BioAssay AID1963875 (Molecular Pharmacology Branch, DTP, NCI, 2024)

System: KRAS-mutant PDC complex spheroid viability
Assay: Anticancer human tumor 186277-243-T-J2-PDC patient-derived colon adenocarcinoma cell line growth inhibition [KRAS2]
Settings: for IC50: curve of first compound; for viability, T/C: stronger effect = lower value
Outline: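 Combination screen of spheroid viability in tumor-cell co-cultures with endothelial (HUVEC) and mesenchymal stem cell stroma. Each agent was tested in half-log dilutions, topping at clinical Cmax or at 10 microM without a known Cmax.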

[1] = second compound 0.1 µM, first compound 0.01 µM
[2] = second compound 0.1 µM, first compound 0.0316 µM
[3] = second compound 0.1 µM, first compound 0.1 µM
[4] = second compound 0.1 µM, first compound 0.316 µM
[5] = second compound 0.1 µM, first compound 1 µM
[6] = second compound 0.1 µM, first compound 3.16 µM
[7] = second compound 0.316 µM, first compound 0.01 µM
[8] = second compound 0.316 µM, first compound 0.0316 µM
[9] = second compound 0.316 µM, first compound 0.1 µM
[10] = second compound 0.316 µM, first compound 0.316 µM
[11] = second compound 0.316 µM, first compound 1 µM
[12] = second compound 0.316 µM, first compound 3.16 µM
[13] = second compound 1 µM, first compound 0.01 µM
[14] = second compound 1 µM, first compound 0.0316 µM
[15] = second compound 1 µM, first compound 0.1 µM
[16] = second compound 1 µM, first compound 0.316 µM
[17] = second compound 1 µM, first compound 1 µM
[18] = second compound 1 µM, first compound 3.16 µM
[19] = second compound 3.16 µM, first compound 0.01 µM
[20] = second compound 3.16 µM, first compound 0.0316 µM
[21] = second compound 3.16 µM, first compound 0.1 µM
[22] = second compound 3.16 µM, first compound 0.316 µM
[23] = second compound 3.16 µM, first compound 1 µM
[24] = second compound 3.16 µM, first compound 3.16 µM
[25] = second compound 0.1 µM, first compound 0.00316 µM
[26] = second compound 0.316 µM, first compound 0.00316 µM
[27] = second compound 1 µM, first compound 0.00316 µM
[28] = second compound 3.16 µM, first compound 0.00316 µM
[29] = second compound 10 µM, first compound 0.00316 µM
[30] = second compound 10 µM, first compound 0.01 µM
[31] = second compound 10 µM, first compound 0.0316 µM
[32] = second compound 10 µM, first compound 0.316 µM
[33] = second compound 10 µM, first compound 1 µM
[34] = second compound 10 µM, first compound 0.1 µM
[35] = second compound 10 µM, first compound 3.16 µM
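Wherever viability, T/C is given: viability read after seven days of compound exposure; 100% = DMSO vehicle-treated spheroids so lower means less viable.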

Row | SMILES | IC50 (second compound 0.1 µM) | IC50 (second compound 0.316 µM) | IC50 (second compound 1 µM) | IC50 (second compound 3.16 µM) | viability, T/C [1] | viability, T/C [2] | viability, T/C [3] | viability, T/C [4] | viability, T/C [5] | viability, T/C [7] | viability, T/C [8] | viability, T/C [9] | viability, T/C [10] | viability, T/C [11] | viability, T/C [13] | viability, T/C [14] | viability, T/C [15] | viability, T/C [16] | viability, T/C [20] | viability, T/C [21] | other results
1 | CC(=O)OC12COC1CC(O)C1(C)C(=O)C(O)C3=C(C)C(OC(=O)C(O)C(NC(=O)OC(C)(C)C)c4ccccc4)CC(O)(C(OC(=O)c4ccccc4)C21)C3(C)C (centres undefined) + C=CC(=O)N1CCN(c2nc(OCC3CCCN3C)nc3c2CCN(c2cccc4cccc(C)c24)C3)CC1CC#N | < 0.01 µM | < 0.01 µM | < 0.01 µM | < 0.01 µM | 4.93% | 3.47% | 3.22% | 2.86% | 3.09% | 3.71% | 3.26% | 3.24% | 2.85% | 2.97% | 4.4% | 4.12% | 3.41% | 3% | 3.92% | 3.17% | IC50 (second compound 0.0316 µM): < 0.01 µM; viability, T/C (second compound 0.0316 µM, first compound 0.01 µM): 5.4%; viability, T/C (second compound 0.0316 µM, first compound 0.0316 µM): 3.51%; viability, T/C (second compound 0.0316 µM, first compound 0.1 µM): 2.98%; viability, T/C (second compound 0.0316 µM, first compound 0.316 µM): 2.96%; viability, T/C (second compound 0.0316 µM, first compound 1 µM): 3.29%; viability, T/C (second compound 0.0316 µM, first compound 3.16 µM): 3.21%; viability, T/C [6]: 3.2%; viability, T/C [12]: 3.26%; viability, T/C [17]: 3.17%; viability, T/C [18]: 2.9%; viability, T/C [19]: 4.54%; viability, T/C [22]: 3.26%; viability, T/C [23]: 3.28%; viability, T/C [24]: 3.25%
2 | CCN1CCN(Cc2ccc(Nc3ncc(F)c(-c4cc(F)c5nc(C)n(C(C)C)c5c4)n3)nc2)CC1 + C=CC(=O)N1CCN(c2nc(=O)n(-c3c(C)ccnc3C(C)C)c3nc(-c4c(O)cccc4F)c(F)cc23)C(C)C1 | > 1 µM | > 1 µM | > 1 µM | > 1 µM | 95% | 98.4% | 129% | 158% | 96.6% | 101% | 103% | 117% | 157% | 105% | 103% | 99.7% | 113% | 153% | 108% | 139% | IC50 (second compound 10 µM): 0.571 µM; viability, T/C [25]: 107%; viability, T/C [26]: 104%; viability, T/C [27]: 109%; viability, T/C [17]: 99.7%; viability, T/C [28]: 92.2%; viability, T/C [19]: 102%; viability, T/C [22]: 175%; viability, T/C [23]: 73%; viability, T/C [29]: 69.1%; viability, T/C [30]: 64.8%; viability, T/C [31]: 83.3%; viability, T/C [32]: 74.1%; viability, T/C [33]: 27.5%
3 | CC(C)n1nc(-c2ccc3oc(N)nc3c2)c2c(N)ncnc21 + COc1cc2nc(C)nc(NC(C)c3cc(N)cc(C(F)(F)F)c3)c2cc1OC1CCOC1 | 0.00767 µM | 0.00638 µM | 0.0154 µM | 0.0173 µM | 47% | 25.3% | 17.3% | – | – | 34.8% | 19.8% | 17.2% | – | – | 62.9% | 28.5% | 13.7% | – | 29% | 16% | IC50 (second compound 10 µM): 0.0058 µM; viability, T/C (second compound 0.1 µM, first compound 0.000316 µM): 98.3%; viability, T/C (second compound 0.1 µM, first compound 0.001 µM): 96.3%; viability, T/C [25]: 64.8%; viability, T/C (second compound 0.316 µM, first compound 0.000316 µM): 111%; viability, T/C (second compound 0.316 µM, first compound 0.001 µM): 93.6%; viability, T/C [26]: 74.1%; viability, T/C (second compound 1 µM, first compound 0.000316 µM): 108%; viability, T/C (second compound 1 µM, first compound 0.001 µM): 103%; viability, T/C [27]: 91.8%; viability, T/C (second compound 3.16 µM, first compound 0.000316 µM): 109%; viability, T/C (second compound 3.16 µM, first compound 0.001 µM): 103%; viability, T/C [28]: 99.8%; viability, T/C [19]: 69%; viability, T/C (second compound 10 µM, first compound 0.000316 µM): 64.5%; viability, T/C (second compound 10 µM, first compound 0.001 µM): 64.3%; viability, T/C [29]: 58.8%; viability, T/C [30]: 41.9%; viability, T/C [31]: 21.1%; viability, T/C [34]: 8.37%
4 | COc1cc2nccc(Oc3ccc(NC(=O)C4(C(=O)Nc5ccc(F)cc5)CC4)cc3)c2cc1OC + CNCc1ccccc1-c1csc(C(C)Nc2nc(C)nc3cc(OC)c(OC)cc23)c1 | 1.85 µM | 1.91 µM | 1.68 µM | < 0.0316 µM | – | 112% | 106% | 115% | 93.3% | – | 113% | 104% | 113% | 100% | – | 102% | 112% | 121% | 45.5% | 48% | IC50 (second compound 10 µM): < 0.0316 µM; viability, T/C [6]: 11.4%; viability, T/C (second compound 0.1 µM, first compound 10 µM): 12.4%; viability, T/C [12]: 10.8%; viability, T/C (second compound 0.316 µM, first compound 10 µM): 4.47%; viability, T/C [17]: 85.7%; viability, T/C [18]: 6.86%; viability, T/C (second compound 1 µM, first compound 10 µM): 2.01%; viability, T/C [22]: 26.6%; viability, T/C [23]: 0.18%; viability, T/C [24]: 0.06%; viability, T/C (second compound 3.16 µM, first compound 10 µM): 0.12%; viability, T/C [31]: 0.16%; viability, T/C [34]: 0.15%; viability, T/C [32]: 0.13%; viability, T/C [33]: 0.13%; viability, T/C [35]: 0.13%; viability, T/C (second compound 10 µM, first compound 10 µM): 0.21%
5 | CC1COCCN1c1cc(-c2ccnn2C)c2ccnc(-c3ccn[nH]3)c2n1 (centres undefined) + CC1OCC2(CCN(c3cnc(Sc4ccnc(N)c4Cl)c(N)n3)CC2)C1N | 0.0207 µM | 0.0216 µM | 0.0215 µM | 0.0207 µM | 82.6% | 30.9% | 4.6% | 3.38% | 2.91% | 90.3% | 29.9% | 4.69% | 2.62% | 2.7% | 113% | 18.7% | 3.36% | 2.01% | 14.6% | 3.13% | IC50 (second compound 10 µM): 0.0152 µM; viability, T/C [6]: 3.41%; viability, T/C [12]: 3.03%; viability, T/C [17]: 2.23%; viability, T/C [18]: 2.83%; viability, T/C [19]: 111%; viability, T/C [22]: 1.78%; viability, T/C [23]: 1.9%; viability, T/C [24]: 2.66%; viability, T/C [30]: 72.9%; viability, T/C [31]: 10.5%; viability, T/C [34]: 4.95%; viability, T/C [32]: 4.89%; viability, T/C [33]: 2.16%; viability, T/C [35]: 3.22%
6 | CC(=O)OC12COC1CC(O)C1(C)C(=O)C(O)C3=C(C)C(OC(=O)C(O)C(NC(=O)OC(C)(C)C)c4ccccc4)CC(O)(C(OC(=O)c4ccccc4)C21)C3(C)C (centres undefined) + CNCc1ccccc1-c1csc(C(C)Nc2nc(C)nc3cc(OC)c(OC)cc23)c1 | < 0.01 µM | < 0.01 µM | < 0.01 µM | < 0.01 µM | 4.85% | 2.89% | 2.72% | 2.61% | 2.94% | 4.19% | 2.44% | 2.68% | 2.5% | 2.71% | 4.69% | 3.7% | 3.39% | 3.25% | 0.05% | 0.02% | IC50 (second compound 10 µM): < 0.01 µM; viability, T/C [6]: 3.13%; viability, T/C [12]: 3.02%; viability, T/C [17]: 3.43%; viability, T/C [18]: 3.79%; viability, T/C [19]: 6.31%; viability, T/C [22]: 0.03%; viability, T/C [23]: 0.05%; viability, T/C [24]: 3%; viability, T/C [30]: 0.13%; viability, T/C [31]: 0.1%; viability, T/C [34]: 0.08%; viability, T/C [32]: 0.33%; viability, T/C [33]: 3.35%; viability, T/C [35]: 0.58%
